Assay results as given in ChEMBL document CHEMBL1201862, “PubChem BioAssay data set” (2004).
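A five-concentration, 48-hour dose response in 96-well plates underlies each endpoint, interpolated linearly between surrounding concentrations. At the GI50, growth is halved.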 Active and inactive are the calls of the source. Cut-off read from the data, not from the text of the source: active = GI50 up to about 1.1 µM and inactive = higher.

How the values were obtained:
Assay in all cases: NCI anticancer screen, dose series, 48 h
SF-295 = tested on: SF-295
SK-MEL-2 = tested on: SK-MEL-2
OVCAR-3 = tested on: OVCAR-3
NCI-H23 = tested on: NCI-H23
A549 = tested on: A549
TK-10 = tested on: TK-10
SN12C = tested on: SN12C
OVCAR-5 = tested on: OVCAR-5
Malme-3M = tested on: Malme-3M
ACHN = tested on: ACHN
OVCAR-8 = tested on: OVCAR-8
SNB-75 = tested on: SNB-75
SF-268 = tested on: SF-268
CAKI-1 = tested on: CAKI-1
HL-60 = tested on: HL-60
SNB-19 = tested on: SNB-19
NCI-H226 = tested on: NCI-H226

Measured: GI50

COC(=O)C[C@H]1CCC2(OCCO2)[C@]1(C)C(=O)OC
inactive: SF-295 > 100 µM | SK-MEL-2 > 100 µM | OVCAR-3 > 100 µM | NCI-H23 > 100 µM | A549 > 100 µM | TK-10 > 100 µM | SN12C > 100 µM | OVCAR-5 > 100 µM | Malme-3M > 100 µM | ACHN > 100 µM | OVCAR-8 > 100 µM | SNB-75 > 100 µM | SF-268 > 100 µM | CAKI-1 > 100 µM | HL-60 > 100 µM | SNB-19 > 100 µM

CN(C)CCC(=O)/C=C\c1ccccc1
inactive: SF-295 20.3 µM | OVCAR-3 18.2 µM | A549 21.6 µM | TK-10 18.5 µM | SN12C 16.6 µM | OVCAR-5 20.9 µM | Malme-3M 17.1 µM | ACHN 18.2 µM | OVCAR-8 18.1 µM | SNB-75 60.1 µM | NCI-H226 23 µM | CAKI-1 18.3 µM | HL-60 10.6 µM | SNB-19 39.2 µM

COc1ccc(NC(=O)/C(Cc2nc3ccccc3nc2O)=N\O)c(OC)c1
inactive: SF-295 > 100 µM | OVCAR-3 > 100 µM | NCI-H23 > 100 µM | A549 > 100 µM | TK-10 > 100 µM | SN12C > 100 µM | OVCAR-5 > 100 µM | Malme-3M > 100 µM | ACHN > 100 µM | OVCAR-8 > 100 µM | SNB-75 > 100 µM | NCI-H226 > 100 µM | SF-268 > 100 µM | CAKI-1 > 100 µM | HL-60 > 100 µM | SNB-19 > 100 µM

COc1ccc([C@@H]2CC(=O)NCCCCNCCCN2)cc1
inactive: SF-295 > 100 µM | SK-MEL-2 > 100 µM | NCI-H23 > 100 µM | A549 > 100 µM | TK-10 > 100 µM | SN12C > 100 µM | OVCAR-5 > 100 µM | Malme-3M > 100 µM | ACHN > 100 µM | OVCAR-8 > 100 µM | SNB-75 > 100 µM | NCI-H226 > 100 µM | SF-268 > 100 µM | CAKI-1 > 100 µM | HL-60 > 100 µM | SNB-19 > 100 µM

CC1(C)OC2C(CCP(=O)(O)O)OC(c3nc(C(N)=O)cs3)C2O1 (stereo not drawn)
inactive: SK-MEL-2 > 100 µM | NCI-H23 > 100 µM | A549 > 100 µM | TK-10 > 100 µM | SN12C > 100 µM | OVCAR-5 > 100 µM | Malme-3M > 100 µM | ACHN > 100 µM | OVCAR-8 > 100 µM | SNB-75 > 100 µM | NCI-H226 > 100 µM | SF-268 > 100 µM | CAKI-1 > 100 µM | SNB-19 > 100 µM

C[C@]12CC[C@H](OC(=O)Cc3ccc(N(CCCl)CCCl)cc3)CC1CC[C@@H]1C2CC[C@]2(C)NC(=O)CCC12 (stereo partly drawn)
inactive: SF-295 11.8 µM | SK-MEL-2 25.5 µM | OVCAR-3 4.04 µM | NCI-H23 11.8 µM | A549 14.6 µM | TK-10 19.9 µM | SN12C 5.38 µM | Malme-3M 15.8 µM | ACHN 4.04 µM | OVCAR-8 > 10 µM | SNB-75 10.1 µM | NCI-H226 15.5 µM | SF-268 9.64 µM | CAKI-1 3.92 µM | HL-60 2.48 µM | SNB-19 13 µM

CCCCCCCCCCCCCC(=O)OCC1OC(n2cc(F)c(=O)[nH]c2=O)C(N)C(OC(=O)CCCCCCCCCCCCC)C1O (stereo not drawn)
inactive: SF-295 > 100 µM | SK-MEL-2 > 100 µM | OVCAR-3 > 100 µM | NCI-H23 > 100 µM | A549 > 100 µM | TK-10 > 100 µM | SN12C > 100 µM | Malme-3M > 100 µM | ACHN > 100 µM | OVCAR-8 > 100 µM | SNB-75 > 100 µM | SF-268 > 100 µM | CAKI-1 > 100 µM | HL-60 > 100 µM | SNB-19 > 100 µM

C=C(CS(=O)(=O)c1ccccc1)C(=O)OCC
inactive: SF-295 18.1 µM | SK-MEL-2 15.6 µM | OVCAR-3 13.4 µM | NCI-H23 18.2 µM | A549 18.5 µM | TK-10 17.4 µM | SN12C 16.3 µM | OVCAR-5 19.6 µM | Malme-3M 16.1 µM | ACHN 15.5 µM | OVCAR-8 10.5 µM | SNB-75 17.4 µM | NCI-H226 25.1 µM | SF-268 19.6 µM | CAKI-1 18 µM | SNB-19 20 µM

Cc1nc2sccn2c1C(=O)N/N=C1\SCC(=O)N1C
inactive: SF-295 > 100 µM | SK-MEL-2 > 100 µM | OVCAR-3 > 100 µM | NCI-H23 > 100 µM | A549 > 100 µM | TK-10 > 100 µM | SN12C > 100 µM | OVCAR-5 > 100 µM | Malme-3M > 100 µM | ACHN > 100 µM | OVCAR-8 > 100 µM | NCI-H226 > 100 µM | SF-268 > 100 µM | CAKI-1 > 100 µM | HL-60 > 100 µM | SNB-19 > 100 µM

Cc1cc(Cl)cc2c1NC(=O)C2(O)CC(=O)c1ccc(F)cc1 (stereo not drawn)
inactive: SF-295 53.8 µM | SK-MEL-2 73.3 µM | OVCAR-3 37.8 µM | NCI-H23 61.1 µM | A549 30.2 µM | TK-10 > 100 µM | SN12C 27.2 µM | OVCAR-5 > 100 µM | Malme-3M 29.3 µM | ACHN 32.5 µM | OVCAR-8 80.7 µM | SNB-75 26.5 µM | NCI-H226 39.8 µM | SF-268 67 µM | CAKI-1 > 100 µM | SNB-19 > 100 µM

O=C(O)CCCSC(=O)Nc1ccc(/N=N/c2ccccc2)cc1
inactive: SF-295 > 100 µM | SK-MEL-2 > 100 µM | OVCAR-3 > 100 µM | NCI-H23 > 100 µM | A549 > 100 µM | TK-10 > 100 µM | SN12C > 100 µM | OVCAR-5 > 100 µM | ACHN > 100 µM | OVCAR-8 > 100 µM | NCI-H226 > 100 µM | SF-268 56.1 µM | CAKI-1 > 100 µM | SNB-19 > 100 µM

Oc1ccccc1-c1cnnc(-c2ccccc2O)c1
inactive: SK-MEL-2 20.5 µM | OVCAR-3 19 µM | TK-10 28.7 µM | SN12C 30.3 µM | OVCAR-5 28.6 µM | Malme-3M 33.6 µM | ACHN 27.7 µM | OVCAR-8 22.6 µM | SNB-75 20.4 µM | NCI-H226 42 µM | SF-268 38.2 µM | CAKI-1 28.6 µM | HL-60 19.8 µM

CCOP(=O)(OCC)/C(C#N)=C\c1ccsc1
inactive: SF-295 > 100 µM | SK-MEL-2 > 100 µM | OVCAR-3 > 100 µM | NCI-H23 > 100 µM | A549 > 100 µM | TK-10 > 100 µM | SN12C > 100 µM | OVCAR-5 > 100 µM | Malme-3M > 100 µM | ACHN > 100 µM | OVCAR-8 > 100 µM | SNB-75 > 100 µM | NCI-H226 > 100 µM | SF-268 > 100 µM | CAKI-1 > 100 µM | SNB-19 > 100 µM
